Calls of active or inactive are those of the source. The rule behind the calls is not given here.
Key:
[1] = system: GBM; experiment: Antitumor activity against TMZ-resistant patient-derived human GBM cells xenografted in NOD.CB17-Prkdcscid/NCrCrl mouse assessed as reduction in tumor growth at 5 to 15 mg/kg, ip treated twice per week in presence of Tazemetostat; assay type: functional, organism-based; settings: dose 5-15 mg/kg
[2] = Toxicity in NOD.CB17-Prkdcscid/NCrCrl mouse xenografted with TMZ-resistant patient-derived human GBM cells at 5 to 15 mg/kg, ip treated twice per week in presence of Tazemetostat; assay type: organism-based; settings: in vivo, dose 5-15 mg/kg

In the case of CC(C)c1cc(-c2n[nH]c(=O)n2-c2ccc3c(ccn3C)c2)c(O)cc1O [GANETESPIB], the Activity [1] is reported as “Active” and the Activity [2] is reported as “Toxic”.

From ChEMBL document CHEMBL5385913, “First-in-Class Dual EZH2-HSP90 Inhibitor Eliciting Striking Antiglioblastoma Activity In Vitro and In Vivo” (J Med Chem, 2024)
